According to patent US20200024278A1, “COMPOSITION COMPRISING ANTIBIOTIC COMPOUND AND AN HETEROCYCLIC COMPOUND AND THEIR USE IN PREVENTING OR TREATING BACTERIAL INFECTIONS” (MUTABILIS, priority 2016, published 2020):
One block for each compound: values may come before it.

Legend:
[1] = system: SAU 29213; assay: MIC, broth microdilution (CLSI), substance alone or ATB combined with compound at 4 or 8 μg/mL; assay type: cell-based, S. aureus; conditions: for MIC ATB combined with compound: SAU 29213; for MIC: Staphylococcus aureus, substance alone, SAU 29213 (MSSA 29213), read-out: MIC
Summary of the method: (§1)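 CLSI M7-A7 broth microdilution. ca-MHB, 5·10^5 CFU/mL log-phase cells, 16-20 h, 35° C, ambient air. Fosfomycin wells + 25 μg/ml glucose-6-phosphate. Visual MIC read.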

[2] = system: ECO 190317; assay: as above; assay type: cell-based, E. coli; conditions: Escherichia coli; substance alone; ECO 190317; read-out: MIC
Summary of the method: as §1

[3] = system: ECO UFR39; assay: as above; assay type: cell-based, E. coli; conditions: Escherichia coli; substance alone; ECO UFR39; read-out: MIC
Summary of the method: as §1

[4] = system: PAE UFR90; assay: Fractional Inhibitory Concentration Index, checkerboard assay; assay type: cell-based, P. aeruginosa
Description: (§2) Method 2: Determination of the Fractional Inhibitory Concentration Index
(§3) Serial 2-fold dilutions of each antibiotic tested were prepared in ca-MHB and mixed in each well of a 96-well microtiter plate so that each row (and column) contained a fixed amount of one agent and increasing amounts of the second agent. The range of drug concentrations used in the checkerboard analysis was such that the dilution range encompassed the MIC for each drug used in the analysis. Broth microdilution plates were inoculated with each strain (Table 3) to yield 5.10^5 CFU/mL in a 100 μL final volume and incubated for 18 h at 35° C. in ambient air. Assays including Fosfomycin were supplemented with 25 μg/ml of Glucose-6-phosphate. MICs were determined after overnight incubation, and the fractional inhibitory concentration (FIC) index was calculated for each well. The FIC index (FICI) was calculated for each combination according to the equation FICI=FICa+FICb=(MIC of drug A in combination/MIC of drug A alone)+(MIC of drug B in combination/MIC of drug B alone). The FICI was interpreted as follows: synergy, FICI […]; indifference, 0.5<FIC<4; and antagonism, FICI>4. The checkerboard assays were performed in duplicate.

[5] = system: PAE UFR48; assay: as above; assay type: cell-based, P. aeruginosa
Description: as §2, §3

[6] = system: PAE UFR90; assay: MIC, broth microdilution (CLSI), substance alone or ATB combined with compound at 4 or 8 μg/mL; assay type: cell-based, P. aeruginosa; conditions: PAE UFR90; for MIC: Pseudomonas aeruginosa, substance alone, read-out: MIC
Summary of the method: as §1

[7] = system: PAE 105250; assay: as above; assay type: cell-based, P. aeruginosa; conditions: PAE 105250; for MIC: Pseudomonas aeruginosa, substance alone, read-out: MIC
Summary of the method: as §1

[8] = system: PAE UFR48; assay: as above; assay type: cell-based, P. aeruginosa; conditions: PAE UFR48; for MIC: Pseudomonas aeruginosa, substance alone, read-out: MIC
Summary of the method: as §1

[9] = system: KPN UFR68; assay: Fractional Inhibitory Concentration Index, checkerboard assay; assay type: cell-based, K. pneumoniae
Description: as §2, §3

[10] = system: SPN 49619; assay: MIC, broth microdilution (CLSI), substance alone or ATB combined with compound at 4 or 8 μg/mL; assay type: cell-based, S. pneumoniae; conditions: SPN 49619; for MIC: Streptococcus pneumoniae, substance alone, read-out: MIC
Summary of the method: as §1

[11] = system: ECO 190317; assay: Fractional Inhibitory Concentration Index, checkerboard assay; assay type: cell-based, E. coli
Description: as §2, §3

[12] = system: ECL P99; assay: MIC, broth microdilution (CLSI), substance alone or ATB combined with compound at 4 or 8 μg/mL; assay type: cell-based, E. cloacae; conditions: Enterobacter cloacae; substance alone; ECL P99; read-out: MIC
Summary of the method: as §1

[13] = system: KPN UFR42; assay: as above; assay type: cell-based, K. pneumoniae; conditions: Klebsiella pneumoniae; substance alone; KPN UFR42; read-out: MIC
Summary of the method: as §1

[14] = system: KPN BAA-1898; assay: as above; assay type: cell-based, K. pneumoniae; conditions: Klebsiella pneumoniae, BAA1898; substance alone; KPN BAA-1898; read-out: MIC
Summary of the method: as §1

[15] = system: ECL P99; assay: Fractional Inhibitory Concentration Index, checkerboard assay; assay type: cell-based, E. cloacae
Description: as §2, §3

Structure (SMILES): NC[C@@H]1C(c2ncco2)=C[C@@H]2CN1C(=O)N2OS(=O)(=O)[O-].O=C(O)C(F)(F)F.[Na+] [Example 5, Sodium and 2,2,2-trifluoroacetate [(2S,5R)-2-(azaniumylmethyl)-7-oxo-3-oxazol-2-yl-1,6-diazabicyclo[3.2.1]oct-3-en-6-yl] Sulfate]
- MIC ATB combined with compound ([1]; ATB ATM, compound @4 μg/ml): >32 µg/mL
- MIC ATB combined with compound ([1]; ATB FEP, compound @4 μg/ml): 2 µg/mL
- MIC ATB combined with compound ([1]; ATB FOS, compound @4 μg/ml): 0.5 µg/mL
- MIC ATB combined with compound ([1]; ATB MEM, compound @4 μg/ml): <=0.031 μg/mL
- MIC ATB combined with compound ([1]; ATB PIP, compound @4 μg/ml): 2 µg/mL
- MIC [1]: > 32 µg/mL
- MIC [2]: ≤ 0.016 µg/mL
- MIC [3]: ≤ 0.016 µg/mL
- FIC index min ([4]; compound +ATM): 0.76
- FIC index min ([4]; compound +FEP): 0.69
- FIC index min ([4]; compound +FOS): 0.69
- FIC index min ([4]; compound +MEM): 0.81
- FIC index min ([4]; compound +PIP): 0.56
- FIC index min ([5]; compound +ATM): 0.34
- FIC index min ([5]; compound +FEP): 0.33
- FIC index min ([5]; compound +FOS): 0.88
- FIC index min ([5]; compound +MEM): 0.63
- FIC index min ([5]; compound +PIP): 0.52
- MIC ATB combined with compound ([6]; ATB ATM, compound @4 μg/ml): <0.031 µg/mL
- MIC ATB combined with compound ([6]; ATB FEP, compound @4 μg/ml): <0.031 µg/mL
- MIC ATB combined with compound ([6]; ATB FOS, compound @4 μg/ml): <0.125 µg/mL
- MIC ATB combined with compound ([6]; ATB MEM, compound @4 μg/ml): <0.031 µg/mL
- MIC ATB combined with compound ([6]; ATB PIP, compound @4 μg/ml): <0.031 µg/mL
- MIC [6]: 0.25 µg/mL
- MIC ATB combined with compound ([7]; ATB ATM, compound @4 μg/ml): <0.031 µg/mL
- MIC ATB combined with compound ([7]; ATB FEP, compound @4 μg/ml): <0.031 µg/mL
- MIC ATB combined with compound ([7]; ATB FOS, compound @4 μg/ml): 16 µg/mL
- MIC ATB combined with compound ([7]; ATB MEM, compound @4 μg/ml): <0.031 µg/mL
- MIC ATB combined with compound ([7]; ATB PIP, compound @4 μg/ml): <0.031 µg/mL
- MIC [7]: 4 µg/mL
- MIC ATB combined with compound ([8]; ATB ATM, compound @4 μg/ml): <0.031 µg/mL
- MIC ATB combined with compound ([8]; ATB FEP, compound @4 μg/ml): <0.031 µg/mL
- MIC ATB combined with compound ([8]; ATB FOS, compound @4 μg/ml): 4 µg/mL
- MIC ATB combined with compound ([8]; ATB MEM, compound @4 μg/ml): <0.031 µg/mL
- MIC ATB combined with compound ([8]; ATB PIP, compound @4 μg/ml): <0.031 µg/mL
- MIC [8]: 2 µg/mL
- FIC index min ([9]; compound +ATM): ≤0.008
- FIC index min ([9]; compound +FEP): ≤0.0098
- FIC index min ([9]; compound +FOS): 0.203
- FIC index min ([9]; compound +MEM): 0.020
- FIC index min ([9]; compound +PIP): ≤0.035
- MIC ATB combined with compound ([10]; ATB ATM, compound @4 μg/ml): >32 µg/mL
- MIC ATB combined with compound ([10]; ATB FEP, compound @4 μg/ml): 0.063 µg/mL
- MIC ATB combined with compound ([10]; ATB FOS, compound @4 μg/ml): 16 µg/mL
- MIC ATB combined with compound ([10]; ATB MEM, compound @4 μg/ml): 0.063 µg/mL
- MIC ATB combined with compound ([10]; ATB PIP, compound @4 μg/ml): 0.5 µg/mL
- MIC [10]: > 32 µg/mL
- FIC index min ([11]; compound +ATM): 0.52
- FIC index min ([11]; compound +FEP): 0.25
- FIC index min ([11]; compound +FOS): 0.66
- FIC index min ([11]; compound +MEM): 0.76
- FIC index min ([11]; compound +PIP): ≤0.56
- MIC [12]: ≤ 0.016 µg/mL
- MIC [13]: 32 µg/mL
- MIC [14]: 16 µg/mL
- FIC index min ([15]; compound +ATM): 0.23
- FIC index min ([15]; compound +FEP): 0.23
- FIC index min ([15]; compound +FOS): 0.16
- FIC index min ([15]; compound +MEM): 0.63
- FIC index min ([15]; compound +PIP): 0.32

- MIC ATB combined with compound ([1]; ATB ATM, compound @8 μg/ml): <0.031 µg/mL
- MIC ATB combined with compound ([1]; ATB FEP, compound @8 μg/ml): <=0.031 μg/mL
- MIC ATB combined with compound ([1]; ATB FOS, compound @8 μg/ml): 0.25 µg/mL
- MIC ATB combined with compound ([1]; ATB MEM, compound @8 μg/ml): <0.031 µg/mL
- MIC ATB combined with compound ([1]; ATB PIP, compound @8 μg/ml): <0.031 µg/mL
- MIC [1]: 8 µg/mL
- MIC [2]: 4 µg/mL
- MIC [3]: 4 µg/mL
- MIC ATB combined with compound ([6]; ATB ATM, compound @8 μg/ml): 16 µg/mL
- MIC ATB combined with compound ([6]; ATB FEP, compound @8 μg/ml): 4 µg/mL
- MIC ATB combined with compound ([6]; ATB FOS, compound @8 μg/ml): 8 µg/mL
- MIC ATB combined with compound ([6]; ATB MEM, compound @8 μg/ml): 2 µg/mL
- MIC ATB combined with compound ([6]; ATB PIP, compound @8 μg/ml): >32 µg/mL
- MIC [6]: > 128 µg/mL
- MIC ATB combined with compound ([7]; ATB ATM, compound @8 μg/ml): 8 µg/mL
- MIC ATB combined with compound ([7]; ATB FEP, compound @8 μg/ml): 4 µg/mL
- MIC ATB combined with compound ([7]; ATB FOS, compound @8 μg/ml): 128 µg/mL
- MIC ATB combined with compound ([7]; ATB MEM, compound @8 μg/ml): 2 µg/mL
- MIC ATB combined with compound ([7]; ATB PIP, compound @8 μg/ml): >32 µg/mL
- MIC [7]: > 32 µg/mL
- MIC ATB combined with compound ([8]; ATB ATM, compound @8 μg/ml): 16 µg/mL
- MIC ATB combined with compound ([8]; ATB FEP, compound @8 μg/ml): 32 µg/mL
- MIC ATB combined with compound ([8]; ATB FOS, compound @8 μg/ml): 32 µg/mL
- MIC ATB combined with compound ([8]; ATB MEM, compound @8 μg/ml): 4 µg/mL
- MIC ATB combined with compound ([8]; ATB PIP, compound @8 μg/ml): >32 µg/mL
- MIC [8]: > 128 µg/mL
- MIC ATB combined with compound ([10]; ATB ATM, compound @8 μg/ml): <=0.031 μg/mL
- MIC ATB combined with compound ([10]; ATB FEP, compound @8 μg/ml): <0.031 µg/mL
- MIC ATB combined with compound ([10]; ATB FOS, compound @8 μg/ml): <0.125 µg/mL
- MIC ATB combined with compound ([10]; ATB MEM, compound @8 μg/ml): <0.031 µg/mL
- MIC ATB combined with compound ([10]; ATB PIP, compound @8 μg/ml): <0.031 µg/mL
- MIC [10]: 4 µg/mL
- MIC [12]: 8 µg/mL
- MIC [13]: 16 µg/mL
- MIC [14]: 8 µg/mL
Structure (SMILES): O=C1N2CC(c3cccnc3)=CC(C2)N1OS(=O)(=O)[O-].[Na+] (stereo not drawn) [Example 8, sodium [3-(3-pyridyl)-7-oxo-1,6-diazabicyclo[3.2.1]oct-3-en-6-yl] sulfate]
- FIC index min ([4]; compound +ATM): ≤0.75
- FIC index min ([4]; compound +FEP): ≤0.25
- FIC index min ([4]; compound +FOS): ≤0.62
- FIC index min ([4]; compound +MEM): ≤0.56
- FIC index min ([4]; compound +PIP): ≤0.25
- FIC index min ([5]; compound +ATM): ≤0.13
- FIC index min ([5]; compound +FEP): ≤0.5
- FIC index min ([5]; compound +FOS): ≤0.25
- FIC index min ([5]; compound +MEM): 1.0
- FIC index min ([5]; compound +PIP): ≤0.31
- FIC index min ([9]; compound +ATM): ≤0.07
- FIC index min ([9]; compound +FEP): ≤0.08
- FIC index min ([9]; compound +FOS): 0.75
- FIC index min ([9]; compound +MEM): ≤0.07
- FIC index min ([9]; compound +PIP): ≤0.07
- FIC index min ([11]; compound +ATM): 0.13
- FIC index min ([11]; compound +FEP): 0.13
- FIC index min ([11]; compound +FOS): 0.63
- FIC index min ([11]; compound +MEM): 0.57
- FIC index min ([11]; compound +PIP): ≤0.14
- FIC index min ([15]; compound +ATM): 0.53
- FIC index min ([15]; compound +FEP): 0.25
- FIC index min ([15]; compound +FOS): ≤0.28
- FIC index min ([15]; compound +MEM): 0.75
- FIC index min ([15]; compound +PIP): 0.16
